# In ChEMBL document CHEMBL2429866, “New aminoadamantane derivatives with antiproliferative activity” (Med Chem Res, 2013):
# Columns and labels:
# Assay type in all cases: functional
# NCI-H460 = test: Cytotoxicity against human NCI-H460 cells after 48 hrs by SRB assay; details: NCI-H460, 48 h
# SF-268 = test: Cytotoxicity against human SF268 cells after 48 hrs by SRB assay; details: SF-268, 48 h
# HCT-116 = test: Cytotoxicity against human HCT116 cells after 48 hrs by SRB assay; details: HCT-116, 48 h
# MCF7 = test: Cytotoxicity against human MCF7 cells after 48 hrs by SRB assay; details: MCF7, 48 h
# DU-145 = test: Cytotoxicity against human DU145 cells after 48 hrs by SRB assay; details: DU-145, 48 h
# LNCaP = test: Cytotoxicity against human LNCAP cells after 48 hrs by SRB assay
# U-251 = test: Cytotoxicity against human U251 cells after 48 hrs by SRB assay; details: U-251, 48 h
# COLO 205 = test: Cytotoxicity against human COLO205 cells after 48 hrs by SRB assay; details: COLO 205, 48 h
# PC-3 = test: Cytotoxicity against human PC3 cells after 48 hrs by SRB assay; details: PC-3, 48 h
SMILES,GI50 (NCI-H460) [µM],TGI (NCI-H460) [µM],GI50 (SF-268) [µM],TGI (SF-268) [µM],GI50 (HCT-116) [µM],TGI (HCT-116) [µM],GI50 (MCF7) [µM],TGI (MCF7) [µM],GI50 (DU-145) [µM],TGI (DU-145) [µM],GI50 (LNCaP) [µM],TGI (LNCaP) [µM],GI50 (U-251) [µM],TGI (U-251) [µM],GI50 (COLO 205) [µM],TGI (COLO 205) [µM],GI50 (PC-3) [µM],TGI (PC-3) [µM]
c1ccc(CC23CC4CC(CC(C4)C2NCCN2CCNCC2)C3)cc1 (stereo not drawn),7.49,46.8,22.2,53.6,7.02,50,21.1,52.7,,,,,,,,,,
CN(C)CCCNC1C2CC3CC(C2)CC1(Cc1ccccc1)C3 (stereo not drawn),5.78,25.8,9.09,40.9,6.76,34.8,9.11,42.9,,,,,,,,,,
c1ccc(CC23CC4CC(CC(C4)C2NCCCN2CCOCC2)C3)cc1 (stereo not drawn),50.7,100,56.4,100,44,100,28.9,58.5,,,,,,,,,,
c1ccc(CC23CC4CC(CC(C4)C2NCCCn2ccnc2)C3)cc1 (stereo not drawn),31.5,67.5,28.8,62.8,26.8,64.7,27,56.1,,,,,,,,,,
N[C@H]1c2ccccc2C23CC4CC(CC(C4)[C@H]12)C3 (relative stereo),,,,,,,32.6,62.5,26.6,37.6,28.5,61.2,31.2,56.2,35,69.9,,
N[C@@H]1c2ccccc2C23CC4CC(CC(C4)[C@H]12)C3 (relative stereo),,,,,,,,,31.4,66.1,,,33,56.6,,,21.3,56.7
COc1cc([C@@H]2c3cc4c(cc3[C@@H](O[C@@H]3O[C@@H]5CO[C@@H](C)O[C@H]5[C@H](O)[C@H]3O)[C@H]3COC(=O)[C@H]23)OCO4)cc(OC)c1O [ETOPOSIDE],,,4.21,92.7,,,,,,,,,,,,,,
O=c1[nH]cc(F)c(=O)[nH]1 [FLUOROURACIL],5.95,> 100,49.2,> 100,9.51,> 100,8.4,> 100,,,,,,,,,,
